{"source": "ChEMBL document CHEMBL5543174", "about": "“A Nonbactericidal Anionic Antimicrobial Peptide Provides Prophylactic and Therapeutic Efficacies against Bacterial Infections in Mice by Immunomodulatory-Antithrombotic Duality” (J Med Chem, 2024)", "key": {"[1]": {"test_system": "Mus musculus", "experiment": "Anticoagulation activity in mouse assessed as change in plasma TFPI expression at 10 mg/kg,ip measured after 24 hrs by ELISA", "format": "functional, organism-based"}, "[2]": {"test_system": "Nakaseomyces glabratus", "experiment": "Antimicrobial activity against Candida glabrata ATCC 66032 assessed as inhibition of microbial growth at <= 200 ug/ml incubated for 18 hrs by micro-broth dilution method", "format": "functional, organism-based", "conditions": "dose <= 200.0 µg/ml"}, "[3]": {"test_system": "Neutrophil", "experiment": "Induction of chemotaxis in mouse bone marrow derived neutrophil assessed as increase in neutrophil migration incubated for 8 hrs in presence of macrophage by crystal violet staining based indirect transwell assay", "format": "functional, cell-based"}, "[4]": {"test_system": "Neutrophil", "experiment": "Induction of degranulation in mouse bone marrow derived neutrophil assessed as increase in BPI release at 25 to 100 ug/ml incubated for 6 hrs by ELISA", "format": "functional, cell-based", "conditions": "dose 25-100 µg/ml"}, "[5]": {"test_system": "Staphylococcus aureus", "experiment": "Antibacterial activity against Staphylococcus aureus ATCC 25923 infected in C57BL/6 mouse assessed as reduction in TNF-alpha level in serum at 10 mg/kg,ip pre-administrated 5 hrs before bacterial infection measured after 24 hrs by ELISA", "format": "functional, organism-based", "conditions": "time 29.0 hrs"}, "[6]": {"test_system": "Neutrophil", "experiment": "Induction of chemotaxis in mouse bone marrow derived neutrophil assessed as increase in neutrophil migration at 100 ug/ml preincubated with MTS510 for 30 mins followed by compound addition measured after 8 hrs by crystal violet staining based indirect transwell assay", "format": "functional, cell-based", "conditions": "dose 100.0 µg/ml"}, "[7]": {"test_system": "Escherichia coli", "experiment": "Antibacterial activity against Carbapenem-resistant Escherichia coli infected in C57BL/6 mouse assessed as reduction in IL-6 level in peritoneal fluid at 10 mg/kg,ip administrated 5 hrs after bacterial infection measured after 24 hrs by ELISA", "format": "functional, organism-based", "conditions": "time 19.0 hrs"}, "[8]": {"test_system": "Peritoneal macrophage cell", "experiment": "Induction of chemotaxis in mouse Peritoneal macrophage assessed as upregulation of CXCL2 production at 100 ug/ml preincubated with WRW4 followed by compound addition by ELISA", "format": "functional, cell-based", "conditions": "dose 100.0 µg/ml"}, "[9]": {"test_system": "Peritoneal macrophage", "experiment": "Immunoregulatory activity in mouse Peritoneal macrophage assessed as change in total JNK expression at 25 to 100 ug/ml incubated for 1 hr by Western blotting analysis", "format": "functional, cell-based", "conditions": "dose 25-100 µg/ml"}, "[10]": {"test_system": "Peritoneal macrophage cell", "experiment": "Induction of chemotaxis in mouse Peritoneal macrophage assessed as upregulation of CXCL1 production at 100 ug/ml preincubated with KN-62 followed by compound addition by ELISA", "format": "functional, cell-based", "conditions": "dose 100.0 µg/ml"}, "[11]": {"test_system": "Staphylococcus aureus", "experiment": "Antibacterial activity against Methicillin-resistant Staphylococcus aureus infected in C57BL/6 mouse assessed as reduction in IL-6 level in serum at 10 mg/kg,ip pre-administrated 5 hrs before bacterial infection measured after 24 hrs by ELISA", "format": "functional, organism-based", "conditions": "time 29.0 hrs"}, "[12]": {"test_system": "Peritoneal macrophage cell", "experiment": "Induction of chemotaxis in mouse Peritoneal macrophage assessed as upregulation of CXCL2 expression incubated for 6 hrs by ELISA", "format": "functional, cell-based"}, "[13]": {"test_system": "Escherichia coli", "experiment": "Antibacterial activity against Carbapenem-resistant Escherichia coli infected in C57BL/6 mouse assessed as increase in survival rate at 10 mg/kg,ip administrated 5 hrs after bacterial infection measured after 7 days", "format": "functional, organism-based", "conditions": "time 7.0 day"}, "[14]": {"test_system": "Escherichia coli", "experiment": "Antibacterial activity against Carbapenem-resistant Escherichia coli infected in C57BL/6 mouse assessed as reduction in inflammatory injury in lung at 10 mg/kg,ip administrated 5 hrs after bacterial infection measured after 24 hrs by hematoxylin and eosin staining based analysis", "format": "functional, organism-based", "conditions": "time 19.0 hrs"}, "[15]": {"test_system": "Candida albicans", "experiment": "Antimicrobial activity against Candida albicans ATCC 2002 assessed as inhibition of microbial growth at <= 200 ug/ml incubated for 18 hrs by micro-broth dilution method", "format": "functional, organism-based", "conditions": "dose <= 200.0 µg/ml"}, "[16]": {"test_system": "Enterococcus faecalis", "experiment": "Antimicrobial activity against Enterococcus faecalis ATCC 29212 assessed as inhibition of microbial growth at <= 200 ug/ml incubated for 18 hrs by micro-broth dilution method", "format": "functional, organism-based", "conditions": "dose <= 200.0 µg/ml"}, "[17]": {"test_system": "Peritoneal macrophage cell", "experiment": "Induction of chemotaxis in mouse Peritoneal macrophage assessed as upregulation of CXCL2 production at 100 ug/ml preincubated with KN-62 followed by compound addition by ELISA", "format": "functional, cell-based", "conditions": "dose 100.0 µg/ml"}, "[18]": {"test_system": "Escherichia coli", "experiment": "Antibacterial activity against Carbapenem-resistant Escherichia coli infected in C57BL/6 mouse assessed as reduction in bacterial load at 10 mg/kg,ip administrated 5 hrs after bacterial infection", "format": "functional, organism-based"}, "[19]": {"test_system": "Escherichia coli", "experiment": "Antimicrobial activity against Escherichia coli ATCC 25922 assessed as reduction in microbial colony forming unit at 200 ug/ml incubated for 1 to 4 hrs by time-kill kinetics based analysis", "format": "functional, organism-based", "conditions": "dose 200.0 µg/ml, time 1-4 hrs"}, "[20]": {"test_system": "Peritoneal macrophage", "experiment": "Immunoregulatory activity in mouse Peritoneal macrophage assessed as upregulation of JNK phosphorylation incubated for 1 hr by Western blotting analysis", "format": "functional, cell-based"}, "[21]": {"test_system": "Serum", "experiment": "Immunomodulatory activity in mouse serum assessed as change on C3a level at 25 to 200 ug/ml incubated for 1 hr by ELISA based complement assay", "format": "functional, cell-free", "conditions": "dose 25-200 µg/ml"}, "[22]": {"test_system": "Peritoneal macrophage", "experiment": "Induction of chemotaxis in mouse Peritoneal macrophage assessed as upregulation of CXCL2 gene expression incubated for 6 hrs by qPCR analysis", "format": "functional, cell-based"}, "[23]": {"test_system": "Staphylococcus aureus", "experiment": "Antibacterial activity against Methicillin-resistant Staphylococcus aureus infected in C57BL/6 mouse assessed as reduction in bacterial load at 10 mg/kg,ip pre-administrated 5 hrs before bacterial infection", "format": "functional, organism-based"}, "[24]": {"test_system": "Escherichia coli", "experiment": "Antibacterial activity against Carbapenem-resistant Escherichia coli infected in C57BL/6 mouse assessed as reduction in TNF-alpha level in serum at 10 mg/kg,ip administrated 5 hrs after bacterial infection measured after 24 hrs by ELISA", "format": "functional, organism-based", "conditions": "time 19.0 hrs"}, "[25]": {"test_system": "Neutrophil", "experiment": "Induction of chemotaxis in mouse bone marrow derived neutrophil assessed as increase in neutrophil migration at 100 ug/ml preincubated with WRW4 for 30 mins followed by compound addition measured after 8 hrs by crystal violet staining based indirect transwell assay", "format": "functional, cell-based", "conditions": "dose 100.0 µg/ml"}, "[26]": {"test_system": "Neutrophil", "experiment": "Induction of chemotaxis in mouse bone marrow derived neutrophil assessed as increase in neutrophil migration at 25 to 100 ug/ml incubated for 8 hrs by crystal violet staining based direct transwell assay", "format": "functional, cell-based", "conditions": "dose 25-100 µg/ml"}, "[27]": {"test_system": "Escherichia coli", "experiment": "Antibacterial activity against Carbapenem-resistant Escherichia coli infected in C57BL/6 mouse assessed as reduction in IL-6 level in serum at 10 mg/kg,ip pre-administrated 5 hrs before bacterial infection measured after 24 hrs by ELISA", "format": "functional, organism-based", "conditions": "time 29.0 hrs"}, "[28]": {"test_system": "Peritoneal macrophage", "experiment": "Immunoregulatory activity in mouse Peritoneal macrophage assessed as change in total p38 expression at 25 to 100 ug/ml incubated for 1 hr by Western blotting analysis", "format": "functional, cell-based", "conditions": "dose 25-100 µg/ml"}, "[29]": {"test_system": "Staphylococcus aureus", "experiment": "Antibacterial activity against Methicillin-resistant Staphylococcus aureus infected in C57BL/6 mouse assessed as reduction in inflammatory injury in lung at 10 mg/kg,ip pre-administrated 5 hrs before bacterial infection measured after 24 hrs by hematoxylin and eosin staining based analysis", "format": "functional, organism-based", "conditions": "time 29.0 hrs"}, "[30]": {"test_system": "Staphylococcus aureus", "experiment": "Antimicrobial activity against Methicillin-resistant Staphylococcus aureus assessed as reduction in metabolic activity at < 200 ug/ml incubated for 1 to 4 hrs by CCK-8 assay", "format": "functional, organism-based", "conditions": "dose < 200.0 µg/ml, time 1-4 hrs"}, "[31]": {"test_system": "Mus musculus", "experiment": "Anticoagulation activity in mouse infected with Methicillin-resistant Staphylococcus aureus assessed as increase in plasma TFPI expression at 10 mg/kg,ip pre-administrated 5 hrs before bacterial infection measured after 24 hrs by ELISA", "format": "functional, organism-based", "conditions": "time 29.0 hrs"}, "[32]": {"test_system": "Escherichia coli", "experiment": "Antibacterial activity against Carbapenem-resistant Escherichia coli infected in C57BL/6 mouse assessed as reduction in IL-6 level in serum at 10 mg/kg,ip administrated 5 hrs after bacterial infection measured after 24 hrs by ELISA", "format": "functional, organism-based", "conditions": "time 19.0 hrs"}}, "note": "Calls of active or inactive are those of the source. The rule behind the calls is not given here."}
{"smiles": "CC[C@H](C)[C@H](NC(=O)[C@@H]1CSSC[C@H](NC(=O)[C@H](CCC(=O)O)NC(=O)[C@@H](NC(=O)[C@H](CCCCN)NC(=O)[C@H](Cc2c[nH]cn2)NC(=O)[C@@H](NC(=O)[C@H](CCCCN)NC(=O)[C@H](CCC(=O)O)NC(=O)[C@H](C)NC(=O)[C@H](CCC(=O)O)NC(=O)[C@H](CCC(=O)O)NC(=O)[C@H](CCC(=O)O)NC(=O)[C@H](C)N)[C@@H](C)O)[C@@H](C)O)C(=O)N[C@@H](CC(C)C)C(=O)N[C@@H](CCC(=O)O)C(=O)N1)C(=O)N[C@@H](Cc1ccccc1)C(=O)N[C@H](C(=O)N[C@@H](CC(C)C)C(=O)N[C@@H](CC(C)C)C(=O)N1CCC[C@H]1C(=O)N1CCC[C@@H]1C(=O)N[C@H](C)C(=O)O)[C@@H](C)O", "values": [{"measurement": "Activity", "setting": "[1]", "value": "inactive"}, {"measurement": "Activity", "setting": "[2]", "value": "inactive"}, {"measurement": "Activity", "setting": "[3]", "value": "Dose-Dependent Effect"}, {"measurement": "Activity", "setting": "[4]", "value": "Active"}, {"measurement": "Activity", "setting": "[5]", "value": "Active"}, {"measurement": "Activity", "setting": "[6]", "value": "Active"}, {"measurement": "Activity", "setting": "[7]", "value": "Active"}, {"measurement": "Activity", "setting": "[8]", "value": "Active"}, {"measurement": "Activity", "setting": "[9]", "value": "inactive"}, {"measurement": "Activity", "setting": "[10]", "value": "Active"}, {"measurement": "Activity", "setting": "[11]", "value": "Active"}, {"measurement": "Activity", "setting": "[12]", "value": "Dose-Dependent Effect"}, {"measurement": "Activity", "setting": "[13]", "value": "Active"}, {"measurement": "Activity", "setting": "[14]", "value": "Active"}, {"measurement": "Activity", "setting": "[15]", "value": "inactive"}, {"measurement": "Activity", "setting": "[16]", "value": "inactive"}, {"measurement": "Activity", "setting": "[17]", "value": "Active"}, {"measurement": "Activity", "setting": "[18]", "value": "Active"}, {"measurement": "Activity", "setting": "[19]", "value": "inactive"}, {"measurement": "Activity", "setting": "[20]", "value": "Dose-Dependent Effect"}, {"measurement": "Activity", "setting": "[21]", "value": "inactive"}, {"measurement": "Activity", "setting": "[22]", "value": "Dose-Dependent Effect"}, {"measurement": "Activity", "setting": "[23]", "value": "Active"}, {"measurement": "Activity", "setting": "[24]", "value": "Active"}, {"measurement": "Activity", "setting": "[25]", "value": "Active"}, {"measurement": "Activity", "setting": "[26]", "value": "inactive"}, {"measurement": "Activity", "setting": "[27]", "value": "Active"}, {"measurement": "Activity", "setting": "[28]", "value": "inactive"}, {"measurement": "Activity", "setting": "[29]", "value": "Active"}, {"measurement": "Activity", "setting": "[30]", "value": "inactive"}, {"measurement": "Activity", "setting": "[31]", "value": "Active"}, {"measurement": "Activity", "setting": "[32]", "value": "Active"}]}
